# Measurements as given in patent US11931424B2, “Combination MCL-1 inhibitors with anti-body drug conjugates” (Gilead Sciences, Inc., priority 2021, dated 2024).
# Test system: panel of breast cancer cell lines
# Test: Compound A with targeted agents and chemotherapies, 72-hour in vitro proliferation assays
# Format: cell-based
# Conditions: 72-hour proliferation
# [1] = AU565 cell line, compound A × partner
# [2] = BT-20 cell line, compound A × partner
# [3] = BT-474 cell line, compound A × partner
# [4] = BT-549 cell line, compound A × partner
# [5] = CAL-51 cell line, compound A × partner
# [6] = CAL-85-1 cell line, compound A × partner
# [7] = CAL-120 cell line, compound A × partner
# [8] = CAL-148 cell line, compound A × partner
# [9] = CAMA-1 cell line, compound A × partner
# [10] = DU-4475 cell line, compound A × partner
# [11] = EVSA-T cell line, compound A × partner
# [12] = HCC1143 cell line, compound A × partner
# [13] = MCF7 cells, Compound A × partner agent
# [14] = MDA-MB-175-VII cells, Compound A × partner agent
# [15] = MDA-MB-231 cells, Compound A × partner agent
# [16] = MDA-MB-361 cells, Compound A × partner agent
# [17] = MDA-MB-436 cells, Compound A × partner agent
# [18] = MDA-MB-453 cells, Compound A × partner agent
# [19] = MDA-MB-468 cells, Compound A × partner agent
# [20] = SK-BR-3 cells, Compound A × partner agent
# [21] = SUM159PT cells, combination of compound A with the named agent
# [22] = T47D cells, combination of compound A with the named agent
# [23] = ZR-75-1 cells, combination of compound A with the named agent
# [24] = ZR-75-30 cells, combination of compound A with the named agent
smiles,measurement,setting,value
CC(=O)O[C@@]12CO[C@@H]1C[C@H](O)[C@@]1(C)C(=O)[C@H](O)C3=C(C)[C@@H](OC(=O)[C@H](O)[C@@H](NC(=O)OC(C)(C)C)c4ccccc4)C[C@@](O)([C@@H](OC(=O)c4ccccc4)[C@H]21)C3(C)C [Docetaxel],Bliss Volume,[1],16.97
same,HSA volume,[1],3.68
same,Loewe Volume,[1],1.71
same,Synergy Score,[1],7.58
same,Bliss Volume,[2],27.23
same,HSA volume,[2],21.05
same,Loewe Volume,[2],19.90
same,Synergy Score,[2],39.72
same,Bliss Volume,[3],16.39
same,HSA volume,[3],9.80
same,Loewe Volume,[3],8.62
same,Synergy Score,[3],14.51
same,Bliss Volume,[4],22.57
same,HSA volume,[4],22.13
same,Loewe Volume,[4],22.04
same,Synergy Score,[4],39.66
same,Bliss Volume,[5],2.26
same,HSA volume,[5],3.35
same,Loewe Volume,[5],3.12
same,Synergy Score,[5],4.88
same,Bliss Volume,[6],13.68
same,HSA volume,[6],11.86
same,Loewe Volume,[6],11.10
same,Synergy Score,[6],19.64
same,Bliss Volume,[7],8.92
same,HSA volume,[7],7.98
same,Loewe Volume,[7],8.39
same,Synergy Score,[7],11.63
same,Bliss Volume,[8],15.94
same,HSA volume,[8],13.90
same,Loewe Volume,[8],12.92
same,Synergy Score,[8],28.74
same,Bliss Volume,[9],29.57
same,HSA volume,[9],6.98
same,Loewe Volume,[9],4.88
same,Synergy Score,[9],13.30
same,Bliss Volume,[10],19.28
same,HSA volume,[10],13.68
same,Loewe Volume,[10],12.74
same,Synergy Score,[10],20.30
same,Bliss Volume,[11],32.24
same,HSA volume,[11],12.42
same,Loewe Volume,[11],12.22
same,Synergy Score,[11],24.87
same,Bliss Volume,"HCC38, compound A × partner",23.64
same,HSA volume,"HCC38, compound A × partner",16.36
same,Loewe Volume,"HCC38, compound A × partner",14.95
same,Synergy Score,"HCC38, compound A × partner",29.56
same,Bliss Volume,"HCC70, compound A × partner",25.33
same,HSA volume,"HCC70, compound A × partner",22.90
same,Loewe Volume,"HCC70, compound A × partner",20.81
same,Synergy Score,"HCC70, compound A × partner",39.82
same,Bliss Volume,[12],11.00
same,HSA volume,[12],9.41
same,Loewe Volume,[12],8.32
same,Synergy Score,[12],18.84
same,Bliss Volume,"HCC1569, compound A × partner",6.58
same,HSA volume,"HCC1569, compound A × partner",8.56
same,Loewe Volume,"HCC1569, compound A × partner",9.52
same,Synergy Score,"HCC1569, compound A × partner",11.65
same,Bliss Volume,"HCC1806, compound A × partner",17.46
same,HSA volume,"HCC1806, compound A × partner",12.45
same,Loewe Volume,"HCC1806, compound A × partner",12.66
same,Synergy Score,"HCC1806, compound A × partner",25.50
same,Bliss Volume,"HCC1937, compound A × partner",10.96
same,HSA volume,"HCC1937, compound A × partner",11.56
same,Loewe Volume,"HCC1937, compound A × partner",11.67
same,Synergy Score,"HCC1937, compound A × partner",11.60
same,Bliss Volume,"HCC1954, compound A × partner",25.28
same,HSA volume,"HCC1954, compound A × partner",14.25
same,Loewe Volume,"HCC1954, compound A × partner",12.73
same,Synergy Score,"HCC1954, compound A × partner",25.34
same,Bliss Volume,"HCC2218, compound A × partner",11.69
same,HSA volume,"HCC2218, compound A × partner",6.53
same,Loewe Volume,"HCC2218, compound A × partner",5.20
same,Synergy Score,"HCC2218, compound A × partner",10.71
same,Bliss Volume,"HDQ-P1, compound A × partner",7.85
same,HSA volume,"HDQ-P1, compound A × partner",8.96
same,Loewe Volume,"HDQ-P1, compound A × partner",8.67
same,Synergy Score,"HDQ-P1, compound A × partner",11.43
same,Bliss Volume,"HMC-1-8, compound A × partner",31.00
same,HSA volume,"HMC-1-8, compound A × partner",8.49
same,Loewe Volume,"HMC-1-8, compound A × partner",7.43
same,Synergy Score,"HMC-1-8, compound A × partner",16.44
same,Bliss Volume,"JIMT-1, compound A × partner",4.03
same,HSA volume,"JIMT-1, compound A × partner",4.64
same,Loewe Volume,"JIMT-1, compound A × partner",3.81
same,Synergy Score,"JIMT-1, compound A × partner",6.23
same,Bliss Volume,"KPL-1, compound A × partner",5.18
same,HSA volume,"KPL-1, compound A × partner",8.06
same,Loewe Volume,"KPL-1, compound A × partner",7.67
same,Synergy Score,"KPL-1, compound A × partner",10.20
same,Bliss Volume,[13],14.35
same,HSA volume,[13],11.99
same,Loewe Volume,[13],11.64
same,Synergy Score,[13],17.93
same,Bliss Volume,[14],16.97
same,HSA volume,[14],10.22
same,Loewe Volume,[14],12.14
same,Synergy Score,[14],15.31
same,Bliss Volume,[15],5.15
same,HSA volume,[15],7.49
same,Loewe Volume,[15],6.89
same,Synergy Score,[15],11.57
same,Bliss Volume,[16],−0.86
same,HSA volume,[16],−2.31
same,Loewe Volume,[16],−3.71
same,Synergy Score,[16],4.61
same,Bliss Volume,[17],1.49
same,HSA volume,[17],1.67
same,Loewe Volume,[17],1.48
same,Bliss Volume,[18],30.81
same,HSA volume,[18],22.87
same,Loewe Volume,[18],21.87
same,Synergy Score,[18],44.90
same,Bliss Volume,[19],28.07
same,HSA volume,[19],11.28
same,Loewe Volume,[19],10.11
same,Synergy Score,[19],20.73
same,Bliss Volume,[20],14.70
same,HSA volume,[20],4.18
same,Loewe Volume,[20],2.95
same,Synergy Score,[20],7.33
same,Bliss Volume,[21],18.66
same,HSA volume,[21],18.88
same,Loewe Volume,[21],17.94
same,Synergy Score,[21],33.03
same,Bliss Volume,[22],−1.55
same,HSA volume,[22],2.30
same,Loewe Volume,[22],1.76
same,Synergy Score,[22],6.53
same,Bliss Volume,[23],16.15
same,HSA volume,[23],16.66
same,Loewe Volume,[23],17.29
same,Synergy Score,[23],25.42
same,Bliss Volume,[24],6.48
same,HSA volume,[24],3.70
same,Loewe Volume,[24],2.62
same,Synergy Score,[24],8.08
